Assay results reported in patent publication US6218102A, “Synthetic peptides and mixtures thereof for detecting HIV antibodies” (priority 1988, dated 2001).
Read-outs that look alike come from different tables or passages of the source.

What was measured:
[1] = system: antibodies of patients infected by the AIDS viruses; conditions: cited from earlier work
Antibodies to HIV-1 [2] = test: ELISA with peptide or peptide mixture as antigen, identifying HIV-1 positive sera; assay type: binding, human; conditions: single peptide, known HIV-1 positive sera, Table 3
Method: According to this test a peptide or a peptide mixture of the present invention is adsorbed onto the wells of a microtiter plate. The wells are then treated with sera to be tested. After washing, anti-human IgG labeled with peroxidase is added to the wells. The determination of the peroxidase is performed with a corresponding substrate, e.g. with o-phenylene diamine. Also in this procedure the peroxidase can be exchanged by another label, e.g. by a radioactive or fluorescence label.
(§1) Each well of the microtiter plate is saturated with 100 μl of a solution containing a peptide or mixture of peptides (5 μg/ml) and left overnight. The wells are emptied and washed twice with a washing buffer (Tris, 0.043M; NaCl, 0.5M; thimerosal, 0.01% w/v; Tween 20, 0.05% v/v; pH7.4). The wells are then saturated with 0.35 ml of washing buffer for 1 hr. at 37° C. and washed once with the same buffer. Serum samples to be analyzed are diluted with specimen buffer (washing buffer plus casein, 0.05% w/v). The wells are rinsed with washing buffer prior to the addition of the diluted serum sample (0.1 ml). These are left to incubate for 1 hr. at room temperature. The wells are then emptied, washed twice rapidly and then once for two minutes with washing buffer. […] The wells are then emptied and washed twice rapidly with washing buffer and then five times in which the buffer was in contact with the well 2 minutes per washing. The substrate solution (3,3', 5,5'-tetramethylbenzidine, 8 mg per ml of DMSO) is diluted with 100 volumes 0.1M citrate-acetate buffer, pH 5.6 containing 0.1% v/v of 30% H2 O2 and added to each well (0.1 ml per well). After 10 minutes the contents of each well is treated with 0.1 ml 2N H2 SO4 and the optical density read at 450 nm. All determinations are done in duplicate.

Antibodies to HIV-1 [3] = test: ELISA, relative performance of cyclic and non-cyclic HIV-1 peptides at serum dilutions (optical density); assay type: binding, human
Method: Table 4 is provided to illustrate the sensitivity of cyclic versus non cyclic peptides in the ELISA test by comparing the results of some sera at various dilutions.
as §1

[4] = serum specimen 87V103, dilution 1/50
[5] = serum specimen 1428, dilution 1/50
[6] = serum specimen M-5, dilution 1/50
[7] = serum specimen M-5, dilution 1/100
[8] = serum specimen M-5, dilution 1/200
[9] = serum specimen M-5, dilution 1/400
[10] = serum specimen M-5, dilution 1/800
[11] = serum specimen M-7, dilution 1/50
[12] = serum specimen M-7, dilution 1/100
[13] = serum specimen M-7, dilution 1/200
[14] = serum specimen M-7, dilution 1/400
[15] = serum specimen M-7, dilution 1/800
[16] = serum specimen M-8, dilution 1/50
[17] = serum specimen M-8, dilution 1/100
[18] = serum specimen M-8, dilution 1/200
[19] = serum specimen M-8, dilution 1/400
[20] = serum specimen M-8, dilution 1/800
[21] = serum specimen M-16, dilution 1/50
[22] = serum specimen M-16, dilution 1/100
[23] = serum specimen M-16, dilution 1/200
[24] = serum specimen M-16, dilution 1/400
[25] = serum specimen M-16, dilution 1/800

Substance | % Positive Sera Correctly Identified (Antibodies to HIV-1 [2]) [%] | ELISA optical density (Antibodies to HIV-1 [3]; [4]) [OPTICAL DENSITY UNITS] | ELISA optical density (Antibodies to HIV-1 [3]; [5]) [OPTICAL DENSITY UNITS] | ELISA optical density (Antibodies to HIV-1 [3]; [6]) [OPTICAL DENSITY UNITS] | ELISA optical density (Antibodies to HIV-1 [3]; [7]) [OPTICAL DENSITY UNITS] | ELISA optical density (Antibodies to HIV-1 [3]; [8]) [OPTICAL DENSITY UNITS] | ELISA optical density (Antibodies to HIV-1 [3]; [9]) [OPTICAL DENSITY UNITS] | ELISA optical density (Antibodies to HIV-1 [3]; [10]) [OPTICAL DENSITY UNITS] | ELISA optical density (Antibodies to HIV-1 [3]; [11]) [OPTICAL DENSITY UNITS] | ELISA optical density (Antibodies to HIV-1 [3]; [12]) [OPTICAL DENSITY UNITS] | ELISA optical density (Antibodies to HIV-1 [3]; [13]) [OPTICAL DENSITY UNITS] | ELISA optical density (Antibodies to HIV-1 [3]; [14]) [OPTICAL DENSITY UNITS] | ELISA optical density (Antibodies to HIV-1 [3]; [15]) [OPTICAL DENSITY UNITS] | ELISA optical density (Antibodies to HIV-1 [3]; [16]) [OPTICAL DENSITY UNITS] | ELISA optical density (Antibodies to HIV-1 [3]; [17]) [OPTICAL DENSITY UNITS] | ELISA optical density (Antibodies to HIV-1 [3]; [18]) [OPTICAL DENSITY UNITS] | ELISA optical density (Antibodies to HIV-1 [3]; [19]) [OPTICAL DENSITY UNITS] | ELISA optical density (Antibodies to HIV-1 [3]; [20]) [OPTICAL DENSITY UNITS] | ELISA optical density (Antibodies to HIV-1 [3]; [21]) [OPTICAL DENSITY UNITS] | ELISA optical density (Antibodies to HIV-1 [3]; [22]) [OPTICAL DENSITY UNITS] | other results
12-amino acid sequence (600-611): 12-amino acid sequence 600-611 from gp 41 (HIV-1), Gnann et al. | – | – | – | – | – | – | – | – | – | – | – | – | – | – | – | – | – | – | – | – | positive sera detected ([1]; Center for Disease Control, Atlanta): 78 out of 79; positive sera detected ([1]; Gnann et al., Journal of Virology 1987): 22 out of 22; HIV-1-infected patients reactive ([1]; J. Infect. Dis. 156, 1987, patients from the United States): 131 out of 132
NH2 -GCSGKLICTTAVPWNAS-COOH (H-GCSGKLICTTAVPWNAS-OH; cysteine pairing not given here) [Peptide 77, gp 41 604-620] | 100 | 0.000 | 0.926 | 1.719 | 1.459 | 1.248 | 0.959 | 0.057 | 0.142 | 0.025 | 0.007 | 0.001 | 0.000 | 0.795 | 0.507 | 0.376 | 0.209 | 0.062 | 1.219 | 0.962 | ELISA optical density (Antibodies to HIV-1 [3]; [23]): 0.613 OPTICAL DENSITY UNITS; ELISA optical density (Antibodies to HIV-1 [3]; [24]): 0.301 OPTICAL DENSITY UNITS; ELISA optical density (Antibodies to HIV-1 [3]; [25]): 0.205 OPTICAL DENSITY UNITS
NH2 -RILAVERYLKDQQLLGIWGCSGKLICTTAVPWNAS-COOH [Peptide 87] | 99 | 0.005 | 1.463 | 1.809 | 1.219 | 1.513 | 1.418 | 1.012 | 1.504 | 1.329 | 1.184 | 0.923 | 0.571 | 1.390 | 1.087 | 0.883 | 0.593 | 0.240 | 1.846 | 1.784 | ELISA optical density (Antibodies to HIV-1 [3]; [23]): 1.740 OPTICAL DENSITY UNITS; ELISA optical density (Antibodies to HIV-1 [3]; [24]): 1.634 OPTICAL DENSITY UNITS; ELISA optical density (Antibodies to HIV-1 [3]; [25]): 1.537 OPTICAL DENSITY UNITS
SGKLIC | – | – | – | – | – | – | – | – | – | – | – | – | – | – | – | – | – | – | – | – | immunoreactivity with HIV-1 positive sera ([1]; Gnann et al., 22 HIV-1 positive sera): not immunoreactive with any of the 22 HIV-1 positive sera tested
SGKLICTTAVPWNAS [short synthetic peptide covering residues 606 to 620 of gp 41 (HIV-1), Ser. No. 120,027] | – | – | – | – | – | – | – | – | – | – | – | – | – | – | – | – | – | – | – | – | specificity ([1]; U.S. Ser. No. 120,027, seronegative specimens correctly identified): 63/63; sensitivity ([1]; U.S. Ser. No. 120,027, six of 57 confirmed positive not detected): 89%
